Usually melting point stands for the temperature of the solid-liquid transition. With `Cn1c(C(=O)NC(CF)Cc2ccccc2)cc2c(O)cccc21` (centres unmarked) [Example 23, N-(1-Fluoromethyl-2-phenylethyl) 4-hydroxy-1-methyl-1H-indole-2-carboxamide], the melting point was 163.5 to 165.5 °C.
The figure for `Cn1c(C(=O)NC(CF)Cc2ccccc2)cc2c(O)cccc21` (single isomer, unassigned; (+)) [Example 29, (+)-N-(1-Fluoromethyl-2-phenylethyl)4-hydroxy-1-methyl-1H-indole-2-carboxamide] is 157 to 158 °C.

(Values after patent US7064143B1, “Positive modulators of nicotinic receptor agonists” (AstraZeneca AB, priority 2000, dated 2006).)
